According to patent publication US8859584B2, “TRPV1 antagonists” (AbbVie Inc., priority 2011, dated 2014):
Read-outs that look alike come from different tables or passages of the source.

How the values were obtained:
human TRPV1 [1] = target: T1, human TRPV1 (Homo sapiens, UniProt Q8NER1); assay: Capsaicin Activation Assay (FLIPR intracellular Ca2+, recombinant HEK293 cells); type: cell-based
T1 construct: expressed in transfected cells
Protocol: (i) Capsaicin Activation Assay
Dulbecco's modified Eagle medium (DMEM) (with 4.5 mg/mL glucose) and fetal bovine serum were obtained from Hyclone Laboratories, Inc. (Logan, Utah). Dulbecco's phosphate-buffered saline (DPBS) (with 1 mg/mL glucose and 3.6 mg/l Na pyruvate, without phenol red), L-glutamine, hygromycin B, and Lipofectamine® were obtained from Life Technologies (Grand Island, N.Y.). G418 sulfate was obtained from Calbiochem-Novabiochem Corp. (San Diego, Calif.). Capsaicin (8-methyl-N-vanillyl-6-nonenamide) was obtained from Sigma-Aldrich, Co. (St. Louis, Mo.). Fluo-4 AM (N-[4-[6-[(acetyloxy)-methoxy]-2,7-difluoro-3-oxo-3H-xanthen-9-yl]-2-[2-[2-[bis[2-[(acetyloxy)methoxy]-2-oxyethyl]amino]-5-methylphenoxy]ethoxy]phenyl]-N-[2-[(acetyloxy)methoxy]-2-oxyethyl]-glycine, (acetyloxy)methyl ester) was purchased from Molecular Probes (Eugene, Oreg.).
(§1) Expression plasmids encoding the hTRPV1 cDNA were transfected into HEK293 cells using Lipofectamine®. Forty-eight hours after transfection, the neomycin-resistant cells were selected with growth medium containing 800 μg/mL Geneticin (Life Technologies, formerly Gibco BRL). Surviving individual colonies were isolated and screened for TRPV1 activity. Cells expressing recombinant TRPV1 were maintained at 37° C. in DMEM containing 4 mM L-glutamine, 300 μg/mL G418 (Calbiochem) and 10% fetal bovine serum under a humidified 5% CO2 atmosphere.
The functional activity of compounds at the TRPV1 receptor was determined by measurement of intracellular Ca^2+ levels ([Ca^2+]i) using the Fluorescence Imaging Plate Reader (FLIPR)TETRA®. All compounds were tested over a 12-point one-third-log concentration range. Compound stocks, 10 mM, were prepared in DMSO, and diluted serially across a 384-well plate using a Bravo BenchCel workstation (Agilent Technologies, Santa Clara, Calif.). A stock concentration of capsaicin (10 mM) was made in DMSO, and diluted in DPBS to a final concentration of 200 nM (4×). On the day prior to the experiment, the recombinant HEK293 cells expressing human TRPV1 (hTRPV1) were removed from tissue culture flasks and plated in growth medium into black-walled clear-bottom 384-well Biocoat™ poly-D-lysine assay plates (BD Biosciences, Bedford, Mass.) using a Multidrop® dispenser (ThermoScientific, Waltham, Mass.). […] The plated cells were incubated for 90-120 minutes in the dark at room temperature and then test compound was added to each well. Three minutes later, 200 nM capsaicin (4×) solution was added to each well in an amount sufficient to provide a final assay volume of 80 μL and capsaicin concentration of 50 nM. Fluorescence readings were made at 1 to 5 second intervals over the course of the experimental run. The peak increase in relative fluorescence units (minus baseline) was calculated, and expressed as a percentage of the 50 nM capsaicin (control) response.

human TRPV1 [2] = target: T1, human TRPV1; assay: Acid Activation Assay (pH 5.0, FLIPR intracellular Ca2+, recombinant HEK293 cells); type: cell-based; conditions: percentage of maximal pH 5.0-induced response remaining; HEK293 hTRPV1; max concentration 37.5 μM
Protocol: (ii) Acid Activation Assay
Dulbecco's modified Eagle's medium (DMEM) with 4.5 mg/mL D-glucose, fetal bovine serum, L-glutamine, and 2-morpholinoethanesulfonic acid (MES) were purchased from Sigma-Aldrich Co. (St. Louis, Mo.). […] The FLIPR® Calcium 4 assay kit was purchased from Molecular Devices (Sunnyvale, Calif.).
as §1
The functional activity of compounds at the TRPV1 receptor was determined by measurement of intracellular Ca^2+ levels ([Ca^2+]i) using the Fluorescence Imaging Plate Reader (FLIPR)TETRA®. […] Compound stocks, 10 mM, were prepared in DMSO, and diluted serially across a 384-well plate using a Bravo BenchCel workstation (Agilent Technologies, Santa Clara, Calif.). On the day prior to the experiment, the recombinant HEK293 cells expressing human TRPV1 (hTRPV1) were removed from tissue culture flasks and plated in growth medium into black-walled clear-bottom 384-well Biocoat™ poly-D-lysine assay plates (BD Biosciences, Bedford, Mass.) using a Multidrop® dispenser (ThermoScientific, Waltham, Mass.). […] The plated cells were incubated for 90-120 min in the dark at 25° C. The test compounds dissolved in DMSO were then added to the plates using an Agilent Bravo workstation (Agilent Technologies Inc., Santa Clara, Calif.). Three minutes later, a pH 5.0 solution was added to each well. Reagents were delivered at a rate of 40 μL/sec, and the final assay volume was 80 μL. Acidic pH solutions were prepared by titration of DPBS/MES with 1 N HCl. The intensity of the fluorescence was captured and digitally transferred to an interfaced PC. The maximum peak measured for the concentration range tested was used to calculate the corresponding peak increase in fluorescence over baseline (relative fluorescence units) which was expressed as the percentage (max % remain) of the maximal pH 5.0-induced response.

[3] = recombinant HEK293 cells expressing hTRPV1, 50 nM capsaicin, read-out: human TRPV1 capsaicin IC50

T1 sequence (Q8NER1 whole entry): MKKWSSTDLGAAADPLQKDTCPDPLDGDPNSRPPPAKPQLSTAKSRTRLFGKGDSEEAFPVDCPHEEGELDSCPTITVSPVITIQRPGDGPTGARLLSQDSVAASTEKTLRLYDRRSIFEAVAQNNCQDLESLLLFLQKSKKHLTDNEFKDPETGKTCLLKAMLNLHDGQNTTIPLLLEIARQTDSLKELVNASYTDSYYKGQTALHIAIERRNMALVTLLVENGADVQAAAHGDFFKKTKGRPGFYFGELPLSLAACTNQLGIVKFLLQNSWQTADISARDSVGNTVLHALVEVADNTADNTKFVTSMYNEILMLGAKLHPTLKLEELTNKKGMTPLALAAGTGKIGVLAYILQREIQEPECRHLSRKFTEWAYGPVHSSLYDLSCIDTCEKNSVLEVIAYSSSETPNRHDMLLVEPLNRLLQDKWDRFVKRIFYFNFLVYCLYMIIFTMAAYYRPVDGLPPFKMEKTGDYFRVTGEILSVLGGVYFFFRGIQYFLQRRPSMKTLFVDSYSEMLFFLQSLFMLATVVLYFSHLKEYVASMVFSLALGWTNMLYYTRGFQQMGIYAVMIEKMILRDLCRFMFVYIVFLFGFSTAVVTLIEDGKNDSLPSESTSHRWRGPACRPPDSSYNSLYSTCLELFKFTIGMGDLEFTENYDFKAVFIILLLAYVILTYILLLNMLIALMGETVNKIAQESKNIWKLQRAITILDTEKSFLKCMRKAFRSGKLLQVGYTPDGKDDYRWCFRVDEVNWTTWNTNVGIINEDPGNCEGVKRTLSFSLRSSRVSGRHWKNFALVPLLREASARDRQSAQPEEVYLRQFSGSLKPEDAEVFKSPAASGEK

Row | Compound | IC50 (human TRPV1 [1]; [3]) [nM] | human TRPV1 H+ (max % remain) (human TRPV1 [2]) [%] | IC50 (human TRPV1 [1]) [nM]
1 | O=C(Nc1cccc2c1CC(O)C2)NC1CC2(CCCCC2)Oc2ccccc21 (stereo not drawn) [Example 123, 1-(3,4-dihydrospiro[chromene-2,1′-cyclohexan]-4-yl)-3-(2-hydroxy-2,3-dihydro-1H-inden-4-yl)urea] | 140 | 61 | 
2 | O=C(Nc1cccc2c1C[C@H](O)C2)N[C@@H]1CC2(CCC2)Oc2ccccc21 [Example 22, 1-[(4R)-3,4-dihydrospiro[chromene-2,1′-cyclobutan]-4-yl]-3-[(2R)-2-hydroxy-2,3-dihydro-1H-inden-4-yl]urea] | 78 | 73 | 
3 | CC1(C)C[C@@H](NC(=O)Nc2cccc3c2C[C@H](O)C3)c2ccccc21 [Example 63, 1-[(1R)-3,3-dimethyl-2,3-dihydro-1H-inden-1-yl]-3-[(2R)-2-hydroxy-2,3-dihydro-1H-inden-4-yl]urea] | 140 | 86 | 
4 | O=C(Nc1ccc(F)c2c1C[C@@H](O)C2)N[C@@H]1CC(CF)(CF)Oc2ccc(F)cc21 [Example 161, 1-[(4R)-6-fluoro-2,2-bis(fluoromethyl)-3,4-dihydro-2H-chromen-4-yl]-3-[(2R)-7-fluoro-2-hydroxy-2,3-dihydro-1H-inden-4-yl]urea] | 3900 | 47 | 
5 | O=C(Nc1ccc(F)c2c1C[C@H](O)C2)N[C@@H]1CCOc2c(OC(F)(F)F)cccc21 [Example 137, 1-[(2S)-7-fluoro-2-hydroxy-2,3-dihydro-1H-inden-4-yl]-3-[(4R)-8-(trifluoromethoxy)-3,4-dihydro-2H-chromen-4-yl]urea] | 350 | 4 | 
6 | CC1(C)C[C@@H](NC(=O)Nc2cccc3c2C[C@@H](O)C3)c2ccc(C(F)(F)F)cc2O1 [Example 77, 1-[(4R)-2,2-dimethyl-7-(trifluoromethyl)-3,4-dihydro-2H-chromen-4-yl]-3-[(2S)-2-hydroxy-2,3-dihydro-1H-inden-4-yl]urea] | 12 | 1 | 
7 | CN1CC[C@@H](NC(=O)Nc2ccc(F)c3c2C[C@H](O)C3)c2ccc(C(F)(F)F)cc21 [Example 148, 1-[(2S)-7-fluoro-2-hydroxy-2,3-dihydro-1H-inden-4-yl]-3-[(4R)-1-methyl-7-(trifluoromethyl)-1,2,3,4-tetrahydroquinolin-4-yl]urea] | 3100 | 21 | 
8 | O=C(Nc1cccc2c1C[C@@H](O)C2)N[C@@H]1CC(CF)(CF)Oc2c1ccc(Cl)c2F [Example 81, 1-[(4R)-7-chloro-8-fluoro-2,2-bis(fluoromethyl)-3,4-dihydro-2H-chromen-4-yl]-3-[(2S)-2-hydroxy-2,3-dihydro-1H-inden-4-yl]urea] | 59 | 11 | 
9 | O=C(Nc1ccc(F)c2c1C[C@@H](O)C2)N[C@@H]1CC(CF)(CF)Oc2cc(Cl)ccc21 [Example 133, 1-[(4R)-7-chloro-2,2-bis(fluoromethyl)-3,4-dihydro-2H-chromen-4-yl]-3-[(2R)-7-fluoro-2-hydroxy-2,3-dihydro-1H-inden-4-yl]urea] |  | 36 | 220
10 | O=C(Nc1cccc2c1C[C@H](O)C2)N[C@H]1COc2ccc(Cl)cc2C1 [Example 89, 1-[(3R)-6-chloro-3,4-dihydro-2H-chromen-3-yl]-3-[(2R)-2-hydroxy-2,3-dihydro-1H-inden-4-yl]urea] | 560 | 91 | 
11 | O=C(Nc1ccc(F)c2c1C[C@@H](O)C2)N[C@@H]1CC(CF)(CF)Oc2ccccc21 [Example 169, 1-[(4R)-2,2-bis(fluoromethyl)-3,4-dihydro-2H-chromen-4-yl]-3-[(2R)-7-fluoro-2-hydroxy-2,3-dihydro-1H-inden-4-yl]urea] | 3400 | 57 | 
12 | O=C(Nc1ccc(F)c2c1C[C@H](O)C2)N[C@@H]1CC(CF)(CF)Oc2c1ccc(Cl)c2F [Example 144, 1-[(4R)-7-chloro-8-fluoro-2,2-bis(fluoromethyl)-3,4-dihydro-2H-chromen-4-yl]-3-[(2S)-7-fluoro-2-hydroxy-2,3-dihydro-1H-inden-4-yl]urea] | 400 | 2 | 
13 | CC1(C)C[C@@H](NC(=O)Nc2ccc(F)c3c2C[C@@H](O)C3)c2ccc(F)c(F)c2O1 [Example 171, 1-[(4R)-7,8-difluoro-2,2-dimethyl-3,4-dihydro-2H-chromen-4-yl]-3-[(2R)-7-fluoro-2-hydroxy-2,3-dihydro-1H-inden-4-yl]urea] | 400 | 47 | 
14 | O=C(Nc1cccc2c1C[C@H](O)C2)N[C@@H]1CC(CF)(CF)Oc2c1ccc(Cl)c2F [Example 11, 1-[(4R)-7-chloro-8-fluoro-2,2-bis(fluoromethyl)-3,4-dihydro-2H-chromen-4-yl]-3-[(2R)-2-hydroxy-2,3-dihydro-1H-inden-4-yl]urea] | 56 | 64 | 
15 | O=C(Nc1cccc2c1C[C@H](O)C2)N[C@@H]1CC2(CCCC2)Oc2ccccc21 [Example 128, 1-[(4R)-3,4-dihydrospiro[chromene-2,1′-cyclopentan]-4-yl]-3-[(2R)-2-hydroxy-2,3-dihydro-1H-inden-4-yl]urea] | 410 | 75 | 
16 | O=C(Nc1c(F)ccc2c1C[C@H](O)C2)N[C@@H]1CC(CF)(CF)Oc2cc(C(F)(F)F)ccc21 [Example 96, 1-[(4R)-2,2-bis(fluoromethyl)-7-(trifluoromethyl)-3,4-dihydro-2H-chromen-4-yl]-3-[(2R)-5-fluoro-2-hydroxy-2,3-dihydro-1H-inden-4-yl]urea] | 62 | 2 | 
17 | CC(=O)Nc1nc2c(Oc3cc(-c4ccc(C(F)(F)F)cc4)ncn3)cccc2s1 [A, reference compound] | 20 | 10 | 
18 | O=C(Nc1cccc2c1C[C@@H](O)C2)N[C@@H]1CC(CF)(CF)Oc2cc(Cl)ccc21 [Example 24, 1-[(4R)-7-chloro-2,2-bis(fluoromethyl)-3,4-dihydro-2H-chromen-4-yl]-3-[(2S)-2-hydroxy-2,3-dihydro-1H-inden-4-yl]urea] | 27 | 6 | 
19 | 1-[(4R)-7-fluoro-2,2-dimethyl-3,4-dihydro-2H-chromen-4-yl]-3-[(2R)-7-fluoro-2-hydroxy-2,3-dihydro-1H-inden-4-yl]urea [Example 158] | 600 | 48 | 
20 | O=C(Nc1cccc2c1CC(O)C2)NC1c2ccccc2OCC1Cc1ccccc1 (stereo not drawn) [Example 111, 1-(3-benzyl-3,4-dihydro-2H-chromen-4-yl)-3-(2-hydroxy-2,3-dihydro-1H-inden-4-yl)urea] | 2200 | 94 | 
21 | CC1(C)C[C@@H](NC(=O)Nc2cccc3c2C[C@@H](O)C3)c2ccc(F)cc2O1 [Example 32, 1-[(4R)-7-fluoro-2,2-dimethyl-3,4-dihydro-2H-chromen-4-yl]-3-[(2S)-2-hydroxy-2,3-dihydro-1H-inden-4-yl]urea] | 74 | 33 | 
